The nature of series [1]: Cytotoxicity (XTT cell viability), RAW 264.7. The format is cell-based. Particulars: mouse, RAW 264.7 macrophage cells, LPS/IFN-γ-stimulated, LPS-IFN-γ-induced cells, mean ± SEM (n = 6). On the procedure: (§1) Compounds 1–8 were screened for their inhibitory effects on nitric oxide production in LPS-IFN-γ activated RAW 264.7 macrophages and BV-2 microglial cells at a final concentration of 50 µM. […] A deprenylated furanoxanthone structure with ortho hydroxy group in ring B as in 7 might be important to enhance the inhibitory effect when compared to 6 and 8.
(§2) The iNOS inhibitory activity of the isolated compounds and respective cytotoxicity was determined using a previously described protocol. Briefly, BV-2 mouse microglial (25,000 cells/well) and RAW 264.7 mouse macrophage (100,000 cells/well) cell lines were seeded into 96-well plates in high glucose Dulbecco’s Modified Eagle’s Medium (DMEM, Gibco) containing 4 mM L-glutamine, 10% FBS, 2% HEPES, 1% penicillin/streptomycin, and 0.5% amphotericin B. After incubation for 24 h at 37 °C in a 5% CO2 humidified atmosphere, the cells were stimulated with 0.05% LPS (Sigma) and 0.025% interferon-γ (Roche Diagnostics, Mannheim, Germany) and treated with different concentrations (5–100 μM) of the tested compounds. The level of NO production in cell culture supernatants was determined using Griess reagent (Sigma) by photocolorimetric analysis after 16 h of incubation, using a Hidex Sense Microplate Reader (Hidex, Turku, Finland). Fifty microliters of XTT reagent (Sigma, Kit II) was then added into the same plates for cell viability measurement after 60 min incubation. L-NMMA (Alexis, Grünberg, Germany) 100 µM was used as the positive control, while 1% DMSO and digitonin (Roth, Karlsruhe, Germany) 400 µM were used as the vehicle and negative control, respectively. The assays were conducted in triplicates and repeated in two independent experiments. IC50 values were determined by graphical analysis using GraphPad Prism 7 (GraphPad Software, La Jolla, CA, USA).

Series [2] has as its target T1, COX-2 (human recombinant PGHS-2) (Homo sapiens, UniProt P35354).
T1 construct: purchased Cayman Chemical Co., Ann Arbor, MI, USA
T1 sequence (P35354 18-604): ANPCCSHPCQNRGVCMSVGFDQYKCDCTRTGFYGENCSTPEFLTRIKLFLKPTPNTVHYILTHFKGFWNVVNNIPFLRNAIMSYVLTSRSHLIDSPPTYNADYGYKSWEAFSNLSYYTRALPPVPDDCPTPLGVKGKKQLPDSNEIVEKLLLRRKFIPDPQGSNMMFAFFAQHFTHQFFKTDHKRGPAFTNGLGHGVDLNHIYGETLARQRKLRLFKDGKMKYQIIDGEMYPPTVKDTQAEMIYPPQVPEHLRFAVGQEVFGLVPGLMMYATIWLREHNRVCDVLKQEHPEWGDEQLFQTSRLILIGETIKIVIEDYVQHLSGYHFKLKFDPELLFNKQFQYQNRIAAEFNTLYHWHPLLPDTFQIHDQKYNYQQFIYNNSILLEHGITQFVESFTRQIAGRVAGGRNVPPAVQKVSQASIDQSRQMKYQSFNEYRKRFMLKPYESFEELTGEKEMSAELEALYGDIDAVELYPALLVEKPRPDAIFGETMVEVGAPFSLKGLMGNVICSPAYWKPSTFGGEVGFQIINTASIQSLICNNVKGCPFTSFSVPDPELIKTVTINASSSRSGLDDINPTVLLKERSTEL
The series is described as follows: COX-2 enzyme inhibition assay (PGE2 ELISA). It counts as biochemical. The conditions noted are these: mean ± SD (n = 4). How it is done: (§3) The anti-inflammatory effects of the isolated compounds were also screened on COX-1 and COX-2 enzymes inhibition at a final concentration of 20 µM.
(§4) Purified PGHS-1 from ram seminal vesicles for COX-1 and human recombinant PGHS-2 for COX-2 (Cayman Chemical Co., Ann Arbor, MI, USA) were used for the COX inhibition assays. Experiments were performed in a 96-well plate format, as previously described. Briefly, the incubation mixture contained 180 µL of 0.1 M TRIS/HCl-buffer pH 8.0 (Roth, Karlsruhe, Germany), 50 µM Na2EDTA (only for COX-2, Titriplex III, Merck, Darmstadt, Germany), 18 mM L-epinepherine bitartrate (Fluka, Buchs, Switzerland), 5 µM porcine hematin (MP Biomedicals LLC, Solon, OH, USA), and COX-1 or COX-2 enzymes (0.2 U/well). Ten microliters of tested compounds (dissolved in DMSO with a final concentration of 20 µM) was added and the mixture was pre-incubated for 5 min at room temperature. Thereafter, 10 µL of 5 µM arachidonic acid (Ann Arbor, Michigan USA) was added to the mixture and incubated for 20 min at 37 °C. The reaction was subsequently stopped by adding 10 µL of 10% (v/v) formic acid. The concentration of PGE2 generated in the reaction was quantitatively measured by a competitive PGE2 ELISA kit (Enzo Life Sciences Inc., Farmingdale, NY, USA) according to the manufacturer’s protocol and previous procedure. The absorbance at 405 nm was measured using a Hidex Sense Microplate Reader (Hidex, Turku, Finland). […] The assays were performed in duplicates and repeated in two independent experiments.

The target of series [3] is T2, COX-1 (purified PGHS-1 from ram seminal vesicles) (Ovis aries, UniProt P05979).
T2 construct: Purified PGHS-1 from ram seminal vesicles for COX-1; purchased Cayman Chemical Co., Ann Arbor, MI, USA; host or cells: ram seminal vesicles (tissue-purified)
T2 sequence (P05979 25-600): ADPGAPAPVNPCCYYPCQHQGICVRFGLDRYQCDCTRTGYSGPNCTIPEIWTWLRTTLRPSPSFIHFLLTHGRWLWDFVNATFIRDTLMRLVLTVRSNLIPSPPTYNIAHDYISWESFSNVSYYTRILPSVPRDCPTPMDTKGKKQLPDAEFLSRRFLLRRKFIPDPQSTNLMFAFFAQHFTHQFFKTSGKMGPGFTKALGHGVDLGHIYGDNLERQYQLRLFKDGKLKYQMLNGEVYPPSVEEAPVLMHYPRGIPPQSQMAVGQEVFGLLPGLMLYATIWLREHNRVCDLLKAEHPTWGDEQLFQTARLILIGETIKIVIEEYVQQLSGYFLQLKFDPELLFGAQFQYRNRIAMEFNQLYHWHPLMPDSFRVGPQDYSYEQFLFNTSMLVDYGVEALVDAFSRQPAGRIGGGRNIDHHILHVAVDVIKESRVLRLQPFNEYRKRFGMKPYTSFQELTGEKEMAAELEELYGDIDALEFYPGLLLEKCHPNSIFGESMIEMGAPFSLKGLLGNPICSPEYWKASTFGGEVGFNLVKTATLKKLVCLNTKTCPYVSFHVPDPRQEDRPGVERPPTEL
The experiment in a line: COX-1 enzyme inhibition assay (PGE2 ELISA). It counts as biochemical. The conditions noted are these: mean ± SD (n = 4). On the procedure: as §3, §4

The test system of series [4] is NO production in LPS-IFN-γ-induced RAW 264.7 macrophages. The series is described as follows: NO production inhibition assay (Griess), RAW 264.7. It counts as cell-based, mouse. The conditions noted are these: for IC50: Mus musculus, RAW264.7, LPS-IFN-γ-induced, 16 h, mean ± SEM (n = 6), read-out: IC50, iNOS (inhibition of NO production), RAW 264.7; for suppression of NO production, RAW 264.7: final concentration of 50 µM, preliminary screen. On the procedure:
as §1, §2

From PMC8587515, “Cytotoxic and Anti-Inflammatory Activities of Dihydroisocoumarin and Xanthone Derivatives from Garcinia picrorhiza” (Molecules, 2021) come the findings set out here.

Molecules are shown by their SMILES.

Regarding `C[C@H]1Oc2c(c(O)c3c(=O)c4ccc(O)c(O)c4oc3c2CCC(C)(C)O)C1(C)C` [Compound 4, gerontoxanthone C hydrate], the concentration for half-maximal inhibition (IC50) at 16 h in series [1] is over 200 µM. Also, the inhibition at 20 µM in series [2] is under 10%. Also, 20 µM produced 32.4 ± 7.9% inhibition in series [3]. In series [4], the IC50 was 84.3 ± 3.5 µM and the “suppression of NO production, RAW 264.7” value is listed as “over 70%”.
On the same counts, the results for `C[C@@H]1Oc2cc(O)c3c(=O)c4ccc(O)c(O)c4oc3c2C1(C)C` [Compound 7, 2-deprenylrheediaxanthone B] are 85.6 ± 6.9 µM, under 10%, 15.4 ± 7.5%, 45.6 ± 6.5 µM and “over 70%”.
